From US6525001B1, “Substituted pyrimidine and pyridine herbicides” (Mid-American Commercialization Corporation, priority 1997, dated 2003)

Tests used:
Format in all cases: in vivo
[1] = tested on: Italian ryegrass (Lolium multiflorum); assay: Test D; conditions: POSTEMERGENCE
Description: (§1) Compounds evaluated in this test were formulated in a non-phytotoxic solvent mixture which included a surfactant and applied to plants that were in the 1- to 4-leaf stage (postemergence application). A mixture of sandy loam soil and greenhouse potting mix in a 60:40 ratio was used for the postemergence test.
(§2) Plantings of these crops and weed species were adjusted to produce plants of appropriate size for the postemergence test. All plant species were grown using normal greenhouse practices. Crop and weed species include alfalfa (Medicago sativa), annual bluegrass (Poa annua), blackgrass (Alopecurus myosuroides), black nightshade (Solanum nigra), chickweed (Stellaria media), common poppy (Papaver rhoeas), deadnettle (Lamium amplexicaule), downy brome (Bromus tectorum), field violet (Viola arvensis), galium 2 (Galium aparine), green foxtail (Setaria viridis), Italian ryegrass (Lolium multiflorum), jointed goatgrass (Aegilops cylindrica), kochia (Kochia scoparia), lambsquarters (Chenopodium album), lentil (Lens culinaris), littleseed canarygrass (Phalaris minor), pea (Pisum sativum), potato (Solanum tuberosum), rape (Brassica napus), redroot pigweed (Amaranthus retroflexus), Russian thistle (Salsola kali), scentless chamomile (Matricaria inodora), sorghum (Sorghum vulgare), spring barley (Hordeum vulgare), sugar beet (Beta vulgaris), sunflower (Helianthus annuus), ivyleaf speedwell (Veronica hederaefolia), spring wheat (Triticum aestivum), winter wheat (Triticum aestivum), wild buckwheat (Polygonum convolvulus), wild mustard (Sinapis arvensis), wild oat (Avena fatua), windgrass (Apera spica-venti) and winter barley (Hordeum vulgare).
(§3) Treated plants and untreated controls were maintained in a greenhouse for approximately 21 to 28 days, after which all treated plants were compared to untreated controls and visually evaluated. Plant response ratings, summarized in Table D, are based upon a 0 to 100 scale where 0 is no effect and 100 is complete control. A dash response (−) means no test result.

[2] = tested on: annual bluegrass (Poa annua); assay: Test D; conditions: POSTEMERGENCE
Description: as §1, §2, §3

[3] = tested on: green foxtail (Setaria viridis); assay: Test D; conditions: POSTEMERGENCE
Description: as §1, §2, §3

[4] = tested on: littleseed canarygrass (Phalaris minor); assay: Test D; conditions: POSTEMERGENCE
Description: as §1, §2, §3

[5] = tested on: scentless chamomile (Matricaria inodora); assay: Test D; conditions: POSTEMERGENCE
Description: as §1, §2, §3

[6] = tested on: spring barley (Hordeum vulgare); assay: Test D; conditions: POSTEMERGENCE
Description: as §1, §2, §3

[7] = tested on: windgrass (Apera spica-venti); assay: Test D; conditions: POSTEMERGENCE, Rate 62 g/ha
Description: as §1, §2, §3

[8] = tested on: lambsquarters (Chenopodium album); assay: Test D; conditions: POSTEMERGENCE
Description: as §1, §2, §3

[9] = tested on: Italian ryegrass (Lolium multiflorum); assay: Test D; conditions: PREEMERGENCE
[10] = tested on: jointed goatgrass (Aegilops cylindrica); assay: Test D; design: key: 0 is no effect; conditions: PREEMERGENCE
kochia (Kochia scoparia) = assay: Test D; conditions: PREEMERGENCE
[11] = tested on: lambsquarters (Chenopodium album); assay: Test D; conditions: PREEMERGENCE
[12] = tested on: redroot pigweed (Amaranthus retroflexus); assay: Test D; design: key: 0 is no effect; 100 is complete control; conditions: PREEMERGENCE
[13] = tested on: spring barley (Hordeum vulgare); assay: Test D; design: key: 0 is no effect; conditions: PREEMERGENCE
[14] = tested on: winter wheat (Triticum aestivum); assay: Test D; design: key: 0 is no effect; conditions: PREEMERGENCE
[15] = tested on: alexandergrass (Brachiaria plantaginea); assay: Test E pre-/postemergence/post directed; design: key: 0 is no injury; 100 is complete control; conditions: PREEMERGENCE
Method in brief: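 Three application modes in greenhouse pots: preemergence soil spray, postemergence foliar spray at two to four leaves, and post-directed spray to soil and plant base. Ratings of 0–100 injury, assigned visually against untreated controls 13 to 21 days later.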

CCc1cnc(-c2ccc(C(F)(F)F)cc2)nc1Cc1cccc(C(F)(F)F)c1 [Compound 22]
Plant response rating, I. Ryegrass ([1]; Rate 62 g/ha): 10 | Plant response rating, I. Ryegrass ([1]; Rate 125 g/ha): 10 | Plant response rating, Annual bluegras ([2]; Rate 62 g/ha): 30 | Plant response rating, Annual bluegras ([2]; Rate 125 g/ha): 70 | Plant response rating, Green foxtail ([3]; Rate 62 g/ha): 10 | Plant response rating, Green foxtail ([3]; Rate 125 g/ha): 35 | Plant response rating, LS canarygrass ([4]; Rate 62 g/ha): 20 | Plant response rating, LS canarygrass ([4]; Rate 125 g/ha): 60 | Plant response rating, Scentless chamo ([5]; Rate 62 g/ha): 50 | Plant response rating, Scentless chamo ([5]; Rate 125 g/ha): 80 | Plant response rating, Spring Barley ([6]; Rate 62 g/ha): 10 | Plant response rating, Spring Barley ([6]; Rate 125 g/ha): 20 | Plant response rating, Windgrass [7]: 30 | Plant response rating, Lambsquarters ([8]; Rate 62 g/ha): 60 | Plant response rating, Lambsquarters ([8]; Rate 125 g/ha): 60 | Plant response rating, I. Ryegrass ([9]; Rate 125 g/ha): 65 | Plant response rating, I. Ryegrass ([9]; Rate 250 g/ha): 75 | Plant response rating, Jointed goatgra ([10]; Rate 62 g/ha): 0 | Plant response rating, Jointed goatgra ([10]; Rate 125 g/ha): 20 | Plant response rating, Jointed goatgra ([10]; Rate 250 g/ha): 10 | Plant response rating, Kochia (kochia (Kochia scoparia); Rate 62 g/ha): 10 | Plant response rating, Kochia (kochia (Kochia scoparia); Rate 125 g/ha): 65 | Plant response rating, Kochia (kochia (Kochia scoparia); Rate 250 g/ha): 60 | Plant response rating, Lambsquarters ([11]; Rate 62 g/ha): 60 | Plant response rating, Lambsquarters ([11]; Rate 125 g/ha): 70 | Plant response rating, Lambsquarters ([11]; Rate 250 g/ha): 70 | Plant response rating, Redroot pigweed ([12]; Rate 62 g/ha): 60 | Plant response rating, Redroot pigweed ([12]; Rate 125 g/ha): 100 | Plant response rating, Redroot pigweed ([12]; Rate 250 g/ha): 70 | Plant response rating, Spring Barley ([13]; Rate 62 g/ha): 0 | Plant response rating, Spring Barley ([13]; Rate 125 g/ha): 10 | Plant response rating, Spring Barley ([13]; Rate 250 g/ha): 2 | Plant response rating, Wheat (winter) ([14]; Rate 62 g/ha): 0 | Plant response rating, Wheat (winter) ([14]; Rate 125 g/ha): 10 | Plant response rating, Wheat (winter) ([14]; Rate 250 g/ha): 5

COc1cnc(-c2ccc(C(F)(F)F)cc2)nc1Cc1cccc(C(F)(F)F)c1 [Compound 23]
Plant response rating, Alexandergrass ([15]; Rate 32 g/ha): 0 | Plant response rating, Alexandergrass ([15]; Rate 64 g/ha): 0

Cc1cnc(-n2cnc(C(F)(F)F)c2)nc1Cc1cccc(C(F)(F)F)c1 [Compound 44]
Plant response rating, Alexandergrass ([15]; Rate 32 g/ha): 0
